The text below walks through data of patent EP3572411A1, “THIAZOLE DERIVATIVES AS METALLO-BETA-LACTAMASE INHIBITORS” (Antabio SAS, priority 2018, dated 2019).

Read-outs that look alike come from different tables or passages of the source.

Experiment [1] has as its target T1, IMP-1 (Serratia marcescens, UniProt P52699).
T1 construct: VIM-1; VIM-2
Nature of the experiment: In vitro enzyme inhibition assay (imipenem hydrolysis, UV 299 nm). Format: biochemical. Here is the method:
(§1) In vitro enzyme inhibition assays: Enzyme inhibition assays are performed using purified MBL enzymes (NDM-1; VIM-1; VIM-2; IMP-1) in 10mM HEPES buffer pH 7.5 in 96-well microtiter plates. Imipenem (300µM) is used as substrates and its hydrolysis is followed at UV 299 nm during 10mn every 30 seconds using a Perkin Elmer Envision UV fluorescence plate reader. Hydrolysis rate data in presence of a range of inhibitors are analysed using Dotmatics database software and calculated IC50 values are converted to Ki values using the Cheng-Prusoff equation. Ki = IC50 / (1+([S]/Km) and where the Km values for […] are 70 µM, 1.5 µM, 9 µM and 25 µM respectively. Compound dilution is performed in DMSO. Mean Ki values from multiple experiments are presented. Results are shown in Table 1.

For experiment [2], the target named is T2, NDM-1 (Klebsiella pneumoniae, UniProt C7C422).
T2 construct: VIM-1; VIM-2
The description is as above. Format: biochemical. Here is the method: as §1

In experiment [3] the target is T3, VIM-1 (Pseudomonas aeruginosa, UniProt A0A0F7KYQ8).
T3 construct: VIM-1; VIM-2; IMP-1)
The description is as above. Format: biochemical. Here is the method: as §1

Experiment [4] deals with T4, VIM-2 (Escherichia coli, UniProt Q5U7L7).
T4 construct: VIM-1; VIM-2
The experiment is described as above. It is filed as biochemical. On the procedure:
as §1

The test system of experiment [5] is NTBC039 (K. oxytoca strain expressing IMP-28). Put plainly: Antimicrobial susceptibility testing (broth micro-dilution, Meropenem potentiation). The following applies: MIC of Meropenem with compound at constant 8 µg/mL; CAMHB, 18-20 hours, 37°C. Format: cell-based. Here is the method:
(§2) Antimicrobial susceptibility testing: The operation is carried out using the 'broth micro-dilution method' according to the protocols M07-A8 established by the Clinical Laboratory Standards Institute (CLSI). Serial dilutions of the β-lactam antibiotic (Meropenem) are prepared in 96-well plates in cation-adjusted Mueller-Hinton broth (CAMHB); the concentration range is defined from 0.03 mg/L to 512 mg/L. The compounds are added at a constant concentration of 8 µg/mL. A bacterial inoculum of each strain (clinical isolates) is adjusted to a 0.5 McFarland turbidity standard in physiologic serum (0.9 % NaCl), then diluted 1:100 in CAMHB and added to each well to give a final bacterial cell number of 5x10^5 CFU/well. After incubation for 18-20 hours in a heating chamber at 37°C, the growth inhibition is evaluated by the absence of any bacterial development.
(§3) The compounds of Table 2 are added at a constant concentration of 8 µg/mL. The clinical strains used in these potentiation experiments are NTBC020 (E. coli strain expressing NDM-1, TEM-1 and CTX-M-15); NTBC035-2 (K. pneumoniae strain expressing NDM-1, CMY-4 and SHV-11); NTBC104-1 (K. pneumoniae strain expressing NDM-1 and SHV-11); NTBC123 (K. pneumoniae strain expressing NDM-1); NTBC018 (C. freundii strain expressing VIM-2); NTBC024 (K. pneumoniae strain expressing VIM-19, TEM-1 and CTX-M-3); NTBC042 (E. coli strain expressing VIM-1, TEM-1 , CTX-M-15, SHV-12); NTBC055 (E. Coli strain expressing VIM-1); NTBC062 (K. pneumoniae strain expressing IMP-1 and TEM-1) and NTBC039 (K. oxytoca strain expressing IMP-28). • For NDM-1 the Ki values of < 0.05 µM are designated (A); Ki values of 0.05 - 0.2 µM are designated (B); Ki values of 0.2 - 0.4 µM are designated (C). • For VIM-1 the Ki values of < 0.2 µM are designated (A); Ki values of 0.2 - 0.5 µM are designated (B); Ki values of 0.5 - 0.8 µM are designated (C). • For VIM-2 the Ki values of < 0.02 µM are designated (A); Ki values of 0.02 - 0.05 µM are designated (B); Ki values of 0.05 - 0.2 µM are designated (C). • For IMP-1 the Ki values of < 0.5 µM are designated (A); Ki values of 0.5 - 1 µM are designated (B); Ki values of 1 - 8 µM are designated (C). • MIC values of < 1 µg/mL are designated (A); MIC values of 1 - 2 µg/mL are designated (B); • MIC values of 2 - 128 µg/mL are designated (C). Table 1. Ki results

Experiment [6] has as its system NTBC123 (K. pneumoniae strain expressing NDM-1). Described as above. Format: cell-based. To be noted: MIC of Meropenem with compound at constant 8 µg/mL; CAMHB, 18-20 hours, 37°C. Here is the method: as §2, §3
Experiment [7] relates to NTBC104-1 (K. pneumoniae strain expressing NDM-1 and SHV-11). The experiment is described as above. It is filed as cell-based. The following applies: MIC of Meropenem with compound at constant 8 µg/mL; CAMHB, 18-20 hours, 37°C. On the procedure: as §2, §3
Experiment [8] relates to NTBC035-2 (K. pneumoniae strain expressing NDM-1, CMY-4 and SHV-11). The experiment is described as above. Format: cell-based. The following applies: MIC of Meropenem with compound at constant 8 µg/mL; CAMHB, 18-20 hours, 37°C. On the procedure:
as §2, §3

The subject of experiment [9] is NTBC042 (E. coli strain expressing VIM-1, TEM-1 , CTX-M-15, SHV-12). Described as above. Format: cell-based. To be noted: MIC of Meropenem with compound at constant 8 µg/mL; CAMHB, 18-20 hours, 37°C. Here is the method:
as §2, §3

For experiment [10], the system named is NTBC020 (E. coli strain expressing NDM-1, TEM-1 and CTX-M-15). The description is as above. It is filed as cell-based. To be noted: MIC of Meropenem with compound at constant 8 µg/mL; CAMHB, 18-20 hours, 37°C. Here is the method: as §2, §3
In experiment [11] the test system is NTBC062 (K. pneumoniae strain expressing IMP-1 and TEM-1). The experiment is described as above. Format: cell-based. The following applies: MIC of Meropenem with compound at constant 8 µg/mL; CAMHB, 18-20 hours, 37°C. On the procedure: as §2, §3
Experiment [12] has as its system NTBC018 (C. freundii strain expressing VIM-2). Described as above. The following applies: MIC of Meropenem with compound at constant 8 µg/mL; CAMHB, 18-20 hours, 37°C. It is filed as cell-based. Here is the method: as §2, §3
The test system of experiment [13] is NTBC055 (E. Coli strain expressing VIM-1). Described as above. It is filed as cell-based. The following applies: MIC of Meropenem with compound at constant 8 µg/mL; CAMHB, 18-20 hours, 37°C. Here is the method: as §2, §3
Experiment [14] concerns NTBC024 (K. pneumoniae strain expressing VIM-19, TEM-1 and CTX-M-3). The description is as above. It is filed as cell-based. To be noted: MIC of Meropenem with compound at constant 8 µg/mL; CAMHB, 18-20 hours, 37°C. Here is the method:
as §2, §3

Setting [15] is: purified enzyme, 10mM HEPES pH 7.5, Imipenem 300µM; mean Ki from IC50 by Cheng-Prusoff; read-out: Ki (µM) IMP-1.
[16] abbreviates: purified enzyme, 10mM HEPES pH 7.5, Imipenem 300µM; mean Ki from IC50 by Cheng-Prusoff; read-out: Ki (µM) NDM-1.
[17] abbreviates: purified enzyme, 10mM HEPES pH 7.5, Imipenem 300µM; mean Ki from IC50 by Cheng-Prusoff; read-out: Ki (µM) VIM-1.
The mark [18] stands for this setting: purified enzyme, 10mM HEPES pH 7.5, Imipenem 300µM; mean Ki from IC50 by Cheng-Prusoff; read-out: Ki (µM) VIM-2.
Setting [19] is: read-out: Ki (µM) IMP-1; purified enzyme, 10mM HEPES pH 7.5, Imipenem 300µM; mean Ki from IC50 by Cheng-Prusoff.
Setting [20] is: read-out: Ki (µM) NDM-1; purified enzyme, 10mM HEPES pH 7.5, Imipenem 300µM; mean Ki from IC50 by Cheng-Prusoff.
Setting [21] is: read-out: Ki (µM) VIM-1; purified enzyme, 10mM HEPES pH 7.5, Imipenem 300µM; mean Ki from IC50 by Cheng-Prusoff.
[22] abbreviates: read-out: Ki (µM) VIM-2; purified enzyme, 10mM HEPES pH 7.5, Imipenem 300µM; mean Ki from IC50 by Cheng-Prusoff.

T1 sequence (P52699 19-246, looked up, species assumed): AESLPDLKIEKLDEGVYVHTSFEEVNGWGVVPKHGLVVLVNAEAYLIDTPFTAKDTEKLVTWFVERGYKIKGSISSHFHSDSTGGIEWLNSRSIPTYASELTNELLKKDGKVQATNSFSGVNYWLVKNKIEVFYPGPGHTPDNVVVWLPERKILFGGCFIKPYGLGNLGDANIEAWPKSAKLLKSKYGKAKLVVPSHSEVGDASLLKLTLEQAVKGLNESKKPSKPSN
T2 sequence (C7C422 29-270, looked up): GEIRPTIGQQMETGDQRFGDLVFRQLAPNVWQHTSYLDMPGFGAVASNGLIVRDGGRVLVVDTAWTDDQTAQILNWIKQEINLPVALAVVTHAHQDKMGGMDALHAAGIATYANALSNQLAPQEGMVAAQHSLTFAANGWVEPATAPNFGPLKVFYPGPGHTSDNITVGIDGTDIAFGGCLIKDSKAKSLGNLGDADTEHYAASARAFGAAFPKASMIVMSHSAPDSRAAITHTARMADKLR

Usually Ki stands for the dissociation constant of the complex between target and ligand, obtained from inhibition or displacement. Regarding “3-[({4-[(4-carboxy-1,3-thiazol-5-yl)sulfamoyl]-2-fluorophenyl}carbamoyl)methyl]-1-[2-(trimethylammonio)ethyl]imidazol-1-ium [Example 21]”, the Ki in experiment [1] (setting [15]) is 1 to 8 µM; in experiment [2] (setting [16]) it was less than 0.05 µM; in experiment [3] (setting [17]), less than 0.2 µM; in experiment [4] (setting [18]), less than 0.02 µM. The “MIC Strain NTBC039” value in experiment [5] was “(B) (MIC values of 1 - 2 µg/mL are designated (B))”. In experiment [6], the “MIC Strain NTBC123” value is on record as “(C) (MIC values of 2 - 128 µg/mL are designated (C))”. Besides, the “MIC Strain NTBC104-1” value in experiment [7] was “(B) (MIC values of 1 - 2 µg/mL are designated (B))”. Besides, in experiment [8], the “MIC Strain NTBC035-2” value is “(C) (MIC values of 2 - 128 µg/mL are designated (C))”. Also, in experiment [9], the “MIC Strain NTBC042” value is recorded as “(B) (MIC values of 1 - 2 µg/mL are designated (B))”. In addition, the “MIC Strain NTBC020” value in experiment [10] is recorded as “(C) (MIC values of 2 - 128 µg/mL are designated (C))”. In addition, the “MIC Strain NTBC062” value in experiment [11] is recorded as “(B) (MIC values of 1 - 2 µg/mL are designated (B))”. Also, the “MIC Strain NTBC018” value in [12] was “(B) (MIC values of 1 - 2 µg/mL are designated (B))”. Also, in experiment [13], the “MIC Strain NTBC055” value is “(B) (MIC values of 1 - 2 µg/mL are designated (B))”. Moreover, the “MIC Strain NTBC024” value in experiment [14] is on record as “(C) (MIC values of 2 - 128 µg/mL are designated (C))”.
Consider “3-(3-carbamimidamidopropyl)-1-[({4-[(4-carboxy-1,3-thiazol-5-yl)sulfamoyl]-2-fluorophenyl}carbamoyl)methyl]-1H-imidazol-3-ium [Example 17]”, for which the Ki is 1 to 8 µM in [1] (setting [15]), less than 0.05 µM in experiment [2] (setting [16]), less than 0.2 µM in experiment [3] (setting [17]) and less than 0.02 µM in experiment [4] (setting [18]). The “MIC Strain NTBC039” value in experiment [5] is “(C) (MIC values of 2 - 128 µg/mL are designated (C))”. Besides, the “MIC Strain NTBC123” value in [6] was “(C) (MIC values of 2 - 128 µg/mL are designated (C))”. The “MIC Strain NTBC104-1” value in experiment [7] was “(C) (MIC values of 2 - 128 µg/mL are designated (C))”. For the same molecule, in experiment [8], the “MIC Strain NTBC035-2” value is on record as “(B) (MIC values of 1 - 2 µg/mL are designated (B))”. Also, in experiment [9], the “MIC Strain NTBC042” value is on record as “d(B) (MIC values of 1 - 2 µg/mL are designated (B))”. For the same molecule, the “MIC Strain NTBC020” value in experiment [10] is listed as “(C) (MIC values of 2 - 128 µg/mL are designated (C))”. In addition, the “MIC Strain NTBC062” value in experiment [11] is given as “(B) (MIC values of 1 - 2 µg/mL are designated (B))”. Also, in experiment [12], the “MIC Strain NTBC018” value is reported as “(A) (MIC values of < 1 µg/mL are designated (A))”. For the same molecule, the “MIC Strain NTBC055” value in experiment [13] is reported as “(B) (MIC values of 1 - 2 µg/mL are designated (B))”. In addition, in [14], the “MIC Strain NTBC024” value was “(B) (MIC values of 1 - 2 µg/mL are designated (B))”.
As for `CC[n+]1ccn(CC(=O)Nc2ccc(S(=O)(=O)Nc3scnc3C(=O)[O-])cc2F)n1` [Example 24, 1-[({4-[(4-carboxy-1,3-thiazol-5-yl)sulfamoyl]-2-fluorophenyl}carbamoyl)methyl]-3-ethyl-1H-1,2,3-triazol-3-ium], the Ki was in the range of 0.5 to 1 µM in [1] (setting [19]), 0.05 to 0.2 µM in experiment [2] (setting [20]), 0.2 to 0.5 µM in [3] (setting [21]) and 0.05 to 0.2 µM in [4] (setting [22]).
Turning to `NCC[n+]1ccn(CC(=O)Nc2c(F)cc(S(=O)(=O)Nc3scnc3C(=O)[O-])cc2F)c1` [Example 14, 3-(2-aminoethyl)-1-[({4-[(4-carboxy-1,3-thiazol-5-yl)sulfamoyl]-2,6-difluorophenyl}carbamoyl)methyl]-1H-imidazol-3-ium], the Ki in [1] (setting [19]) was 1 to 8 µM; in experiment [2] (setting [20]), less than 0.05 µM; in experiment [3] (setting [21]) it was less than 0.2 µM; in [4] (setting [22]) it was 0.02 to 0.05 µM.
In the same order, the values of `C[n+]1cnn(CC(=O)Nc2ccc(S(=O)(=O)Nc3scnc3C(=O)[O-])cc2F)c1` [Example 25, 1-[({4-[(4-carboxy-1,3-thiazol-5-yl)sulfamoyl]-2-fluorophenyl}carbamoyl)methyl]-4-methyl-1H-1,2,4-triazol-4-ium] are 1 to 8 µM, 0.05 to 0.2 µM, 0.2 to 0.5 µM and 0.05 to 0.2 µM.
The matching figures for `Cc1c[n+](C)cn1CC(=O)Nc1ccc(S(=O)(=O)Nc2scnc2C(=O)[O-])cc1F` [Example 6, 1-[({4-[(4-carboxy-1,3-thiazol-5-yl)sulfamoyl]-2-fluorophenyl}carbamoyl)methyl]-3,5-dimethyl-1H-imidazol-3-ium]: 1 to 8 µM, 0.2 to 0.4 µM, 0.5 to 0.8 µM and 0.05 to 0.2 µM.
